Where “and” joins values, the source holds several entries; their conditions need not be identical. Equal values may be shown once.
Assay: case series: professional polishing of the six lower front teeth of heavy calculus formers with MCC paste
Format: in vivo, human
Description: This is an example of a series of cases of patients who have been confirmed as heavy calculus formers that were treated with the 1:1 metal complex. Generally, the medication utilized was composed of the active ingredient, disodium monocopper(II) citrate (MCC), C.A.S. Registry Number: 65330-59-8, dispersed in an aqueous vehicle comprising aluminum hydroxide, dicalcium phosphate, sorbitol, carboxymethylcellulose and water to form a paste. All of the cases incorporated herewith, as an example, were confirmed diagnostically by a dentist employing the usual examining techniques, i.e., physical examination, etc. The ages of the patients who participated in this example ranged from 35 to 73 years.
All of the patients in this example, prior to their treatment with the 1:1 metal complexes, had self-treated. In self-treating, all patients brushed with a standard dentifrice, flossed, and applied a mixture of baking soda, salt and water to their teeth at least once a day to contain or control calculus build up. Subsequent to and in conjunction with self-treatment, each patient received professionally a standard course of therapy which involved routinely scaling the teeth with a hand pick and an ultrasonic scaler and polishing the teeth mechanically with a mixture of pumice and stannous fluoride via a rubber prophylaxis cup. The patients in this example were treated every 3, 4 or 6 months and the length of standard treatment by the dentist ranged from about 4 years to about 12 years.
At the time of the first examination by the dentist, each patient's mouth was in extremely poor condition, and gross calculus build up was observed; however, no caries or restorations were present.
Subsequent to the standard professional therapy, treatment of all sides of the six lower front teeth with MCC were initiated and performed by the dentist every 3, 4 or 6 months for a total of 10 months. Treatment consisted of first scaling the six lower front teeth with a hand pick and an ultrasonic scaler to debride the teeth and then polishing the teeth mechanically with the above described MCC mixture via a rubber prophylaxis cup. […] The overall appearance of the six lower front teeth was excellent. […] For a more detailed presentation of this example, see the following table.

Structure (SMILES): O=C([O-])CC(O)(CC(=O)[O-])C(=O)O.[Cu+2] [MCC, disodium-monocopper(II) citrate]
- Amt. of Calculus after Application of MCC (Calculus Accumulation code 1 = worst condition, 10 = best condition (total absence of accumulation), one value per patient, six lower front teeth, MCC paste every 3, 4 or 6 months for 10 months): +8 (2×) and +9 (2×) and +7
- overall appearance of the six lower front teeth (after therapy with the copper complex): excellent
- calculus accumulation on the six lower front teeth (all patients, compared to the remaining teeth treated with the standard therapy): dramatic reduction in calculus accumulation
- side effects or tissue irritation (five patients, treatment over 10 months): no side effects or tissue irritation
- taste complaint (two of five patients): metallic taste from the MCC mixture which subsided immediately upon rinsing
